Data reported in ChEMBL document CHEMBL1145390, “Synthesis and preliminary biological characterization of new semisynthetic derivatives of ramoplanin” (J Med Chem, 2007).
≈ marks a conversion by molar mass, not a printed value.

How the values were obtained:
[1] = system: Enterococcus faecium; assay: Antibacterial activity against Enterococcus faecium after 24 hrs by broth microdilution method; type: functional; conditions: read-out: MIC
[2] = system: Escherichia coli; assay: Antibacterial activity against Escherichia coli SKF-12140 after 24 hrs by broth microdilution method; type: functional; conditions: read-out: MIC
[3] = system: Staphylococcus aureus; assay: Antibacterial activity against Staphylococcus aureus Smith after 24 hrs by broth microdilution method; type: functional; conditions: read-out: MIC
[4] = system: Enterococcus faecalis; assay: Antibacterial activity against vancomycin-resistant Enterococcus faecalis in presence of 30% bovine serum after 24 hrs by broth microdilution method; type: functional
[5] = system: Staphylococcus aureus; assay: Antibacterial activity against methicillin-resistant and vancomycin-intermediate resistant Staphylococcus aureus clinical isolate after 24 hrs by broth microdilution method; type: functional; conditions: read-out: MIC
[6] = system: Staphylococcus aureus; assay: Antibacterial activity against methicillin-resistant Staphylococcus aureus clinical isolate after 24 hrs by broth microdilution method; type: functional; conditions: read-out: MIC
[7] = Toxicity assessed as hemolysis in erythrocytes at 200 mg/L; type: cell-based, Erythrocyte; conditions: human, read-out: Activity
[8] = system: Enterococcus faecalis; assay: Antibacterial activity against Enterococcus faecalis after 24 hrs by broth microdilution method; type: functional; conditions: read-out: MIC
[9] = system: Candida albicans; assay: Antifungal activity against Candida albicans SKF-2270 after 24 hrs by broth microdilution method; type: functional; conditions: read-out: MIC
[10] = Toxicity assessed as hemolysis in erythrocytes at 1600 mg/L; type: cell-based, Erythrocyte; conditions: human, read-out: Activity
[11] = system: Enterococcus faecium; assay: Antibacterial activity against vancomycin A-resistant Enterococcus faecium clinical isolate after 24 hrs by broth microdilution method; type: functional; conditions: read-out: MIC
[12] = Toxicity assessed as hemolysis in erythrocytes at 800 mg/L; type: cell-based, Erythrocyte; conditions: human, read-out: Activity
[13] = system: Enterococcus faecalis; assay: Antibacterial activity against vancomycin A-resistant Enterococcus faecalis after 24 hrs by broth microdilution method; type: functional; conditions: read-out: MIC
[14] = system: Enterococcus faecium; assay: Antibacterial activity against vancomycin A-resistant Enterococcus faecium clinical isolate in presence of 30% bovine serum after 24 hrs by broth microdilution method; type: functional
[15] = system: Staphylococcus aureus; assay: Antibacterial activity against vancomycin-intermediate resistant Staphylococcus aureus clinical isolate after 24 hrs by broth microdilution method; type: functional
[16] = Toxicity assessed as hemolysis in erythrocytes at 400 mg/L; type: cell-based, Erythrocyte; conditions: human, read-out: Activity
[17] = system: Staphylococcus aureus; assay: Antibacterial activity against vancomycin-intermediate resistant Staphylococcus aureus clinical isolate in presence of 30% bovine serum after 24 hrs by broth microdilution method; type: functional
[18] = system: Streptococcus pyogenes; assay: Antibacterial activity against Streptococcus pyogenes C203 after 24 hrs by broth microdilution method; type: functional; conditions: C203, 24 h, read-out: MIC
[19] = system: Staphylococcus aureus; assay: Antibacterial activity against Staphylococcus aureus Smith in presence of 30% bovine serum after 24 hrs by broth microdilution method; type: functional
[20] = Toxicity assessed as hemolysis in erythrocytes at 100 mg/L; type: cell-based, Erythrocyte; conditions: human, read-out: Activity
[21] = Toxicity assessed as hemolysis in erythrocytes at 180 mg/L; type: cell-based, Erythrocyte; conditions: human, erythrocytes; read-out: Activity
[22] = Toxicity assessed as hemolysis in erythrocytes at 90 mg/L; type: cell-based, Erythrocyte; conditions: human, erythrocytes; read-out: Activity

Row | Compound | MIC [1] [µg/mL] | MIC [2] [µg/mL] | MIC [3] [µg/mL] | MIC [4] [µg/mL] | MIC [5] [µg/mL] | MIC [6] [µg/mL] | hemolysis at 200 mg/L [7] [%] | MIC [8] [µg/mL] | MIC [9] [µg/mL] | hemolysis at 1600 mg/L [10] [%] | MIC [11] [µg/mL] | hemolysis at 800 mg/L [12] [%] | MIC [13] [µg/mL] | MIC [14] [µg/mL] | MIC [15] [µg/mL] | hemolysis at 400 mg/L [16] [%] | MIC [17] [µg/mL] | MIC [18] [µg/mL] | MIC [19] [µg/mL] | hemolysis at 100 mg/L [20] [%] | other results
1 | Cc1ccccc1CC(=O)N[C@@H](CC(N)=O)C(=O)NC[C@@H]1C(=O)N[C@H](c2ccc(O)cc2)C(=O)N[C@H](CCCN)C(=O)N[C@H](C(C)C)C(=O)N[C@@H](c2ccc(O)cc2)C(=O)N[C@H](c2ccc(O)cc2)C(=O)N[C@@H]([C@@H](C)O)C(=O)N[C@@H](Cc2ccccc2)C(=O)N[C@H](CCCN)C(=O)N[C@@H](c2ccc(O[C@H]3O[C@H](CO)[C@@H](O)[C@H](O)[C@@H]3O[C@H]3O[C@H](CO)[C@@H](O)[C@H](O)[C@@H]3O)cc2)C(=O)N[C@H]([C@@H](C)O)C(=O)N[C@@H](c2ccc(O)cc2)C(=O)NCC(=O)N[C@@H](CC(C)C)C(=O)N[C@H](C)C(=O)N[C@@H](c2ccc(O)c(Cl)c2)C(=O)O[C@@H]1C(N)=O | 0.5 (≈ 0.195 µM) | > 128 | ≤ 0.125 | 0.5 | 2 (≈ 0.781 µM) | ≤ 0.125 | 1 | 0.5 (≈ 0.195 µM) | > 128 | 5 | 0.5 (≈ 0.195 µM) | 2 | 0.25 (≈ 0.0976 µM) | 1 | 1 (≈ 0.39 µM) | 1 | 1 | ≤ 0.125 | 0.25 | 1 | 
2 | CCCCC(CC)C(=O)N[C@@H](CC(N)=O)C(=O)NC[C@@H]1C(=O)N[C@H](c2ccc(O)cc2)C(=O)N[C@H](CCCN)C(=O)N[C@H](C(C)C)C(=O)N[C@@H](c2ccc(O)cc2)C(=O)N[C@H](c2ccc(O)cc2)C(=O)N[C@@H]([C@@H](C)O)C(=O)N[C@@H](Cc2ccccc2)C(=O)N[C@H](CCCN)C(=O)N[C@@H](c2ccc(O[C@H]3O[C@H](CO)[C@@H](O)[C@H](O)[C@@H]3O[C@H]3O[C@H](CO)[C@@H](O)[C@H](O)[C@@H]3O)cc2)C(=O)N[C@H]([C@@H](C)O)C(=O)N[C@@H](c2ccc(O)cc2)C(=O)NCC(=O)N[C@@H](CC(C)C)C(=O)N[C@H](C)C(=O)N[C@@H](c2ccc(O)c(Cl)c2)C(=O)O[C@@H]1C(N)=O (some centres undefined) | 0.5 (≈ 0.196 µM) | > 128 | 0.25 (≈ 0.0978 µM) | 1 | 2 (≈ 0.782 µM) | 0.25 (≈ 0.0978 µM) | 4 | 0.5 (≈ 0.196 µM) | > 128 | 83 | 0.5 (≈ 0.196 µM) | 73 | 0.25 (≈ 0.0978 µM) | 1 | 1 (≈ 0.391 µM) | 8 | 2 | ≤ 0.125 | 0.5 | 0 | 
3 | Cc1ccccc1C(=O)N[C@@H](CC(N)=O)C(=O)NC[C@@H]1C(=O)N[C@H](c2ccc(O)cc2)C(=O)N[C@H](CCCN)C(=O)N[C@H](C(C)C)C(=O)N[C@@H](c2ccc(O)cc2)C(=O)N[C@H](c2ccc(O)cc2)C(=O)N[C@@H]([C@@H](C)O)C(=O)N[C@@H](Cc2ccccc2)C(=O)N[C@H](CCCN)C(=O)N[C@@H](c2ccc(O[C@H]3O[C@H](CO)[C@@H](O)[C@H](O)[C@@H]3O[C@H]3O[C@H](CO)[C@@H](O)[C@H](O)[C@@H]3O)cc2)C(=O)N[C@H]([C@@H](C)O)C(=O)N[C@@H](c2ccc(O)cc2)C(=O)NCC(=O)N[C@@H](CC(C)C)C(=O)N[C@H](C)C(=O)N[C@@H](c2ccc(O)c(Cl)c2)C(=O)O[C@@H]1C(N)=O | 2 (≈ 0.785 µM) | > 128 | 1 (≈ 0.392 µM) | 2 | 8 (≈ 3.14 µM) | 1 (≈ 0.392 µM) | 17 | 2 (≈ 0.785 µM) | > 128 | 93 | 4 (≈ 1.57 µM) | 94 | 2 (≈ 0.785 µM) | ≤ 0.125 | 8 (≈ 3.14 µM) | 83 | 4 | ≤ 0.125 | 1 | 2 | 
4 | CC(C)C[C@@H]1NC(=O)CNC(=O)[C@H](c2ccc(O)cc2)NC(=O)[C@@H]([C@@H](C)O)NC(=O)[C@H](c2ccc(O[C@H]3O[C@H](CO)[C@@H](O)[C@H](O)[C@@H]3O[C@H]3O[C@H](CO)[C@@H](O)[C@H](O)[C@@H]3O)cc2)NC(=O)[C@@H](CCCN)NC(=O)[C@H](Cc2ccccc2)NC(=O)[C@H]([C@@H](C)O)NC(=O)[C@@H](c2ccc(O)cc2)NC(=O)[C@H](c2ccc(O)cc2)NC(=O)[C@@H](C(C)C)NC(=O)[C@@H](CCCN)NC(=O)[C@@H](c2ccc(O)cc2)NC(=O)[C@@H](CNC(=O)[C@H](CC(N)=O)NC(=O)Cc2cccc3ccccc23)[C@@H](C(N)=O)OC(=O)[C@H](c2ccc(O)c(Cl)c2)NC(=O)[C@@H](C)NC1=O.Cl | 0.125 | > 128 | ≤ 0.06 | 0.25 | 2 | ≤ 0.06 | 30 | ≤ 0.06 | > 128 |  | ≤ 0.06 | 98 | ≤ 0.06 | 0.5 | 0.25 | 60 | 1 | ≤ 0.06 | 0.25 |  | hemolysis at 180 mg/L [21]: 28%; hemolysis at 90 mg/L [22]: 15%
5 | CC/C=C/C=C\CC(=O)N[C@@H](CC(N)=O)C(=O)NC[C@@H]1C(=O)N[C@H](c2ccc(O)cc2)C(=O)N[C@H](CCCN)C(=O)N[C@H](C(C)C)C(=O)N[C@@H](c2ccc(O)cc2)C(=O)N[C@H](c2ccc(O)cc2)C(=O)N[C@@H]([C@@H](C)O)C(=O)N[C@@H](Cc2ccccc2)C(=O)N[C@H](CCCN)C(=O)N[C@@H](c2ccc(O[C@H]3O[C@H](CO)[C@@H](O)[C@H](O)[C@@H]3O[C@H]3O[C@H](CO)[C@@H](O)[C@H](O)[C@@H]3O)cc2)C(=O)N[C@H]([C@@H](C)O)C(=O)N[C@@H](c2ccc(O)cc2)C(=O)NCC(=O)N[C@@H](CC(C)C)C(=O)N[C@H](C)C(=O)N[C@@H](c2ccc(O)c(Cl)c2)C(=O)O[C@@H]1C(N)=O | 0.5 (≈ 0.196 µM) | > 128 | 0.25 (≈ 0.098 µM) | 0.5 | 2 (≈ 0.784 µM) | 0.25 (≈ 0.098 µM) | 45 | 0.5 (≈ 0.196 µM) | > 128 |  | 0.25 (≈ 0.098 µM) | 96 | 0.25 (≈ 0.098 µM) | 1 | 1 (≈ 0.392 µM) | 51 | 2 | ≤ 0.125 | 0.5 | 38 | 
